Results reported in PMC6677754, “In silico design and optimization of selective membranolytic anticancer peptides” (Scientific Reports, 2019).
Where two headings read alike, the source gives them in different places. Peptide text beside a SMILES is read from it.

Tests used:
[1] = test system: A549 lung adenocarcinoma cell line; assay: Cell viability assay (MTT); format: cell-based, human; conditions: MTT
Method in brief: (§1)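 Viability by MTT: 10^4 cells/well exposed 24 h to 2-fold peptide dilutions from 100 μM in DMEM, then 1 h with 0.5 mg mL−1 MTT; absorbance at 540 nm relative to peptide-free medium as 100% survival. EC50 from a 3-parameter log-logistic fit.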

[2] = test system: MCF7 breast adenocarcinoma cell line; assay: Cell viability assay (MTT); format: cell-based, human
Method in brief: as §1

[3] = test system: noncancer HDMEC primary cells (human dermal microvascular endothelial cells); assay: Cell viability assay (MTT); format: cell-based; conditions: for EC50: Table S2, noncancer primary cells, MTT, 24 h, mean ± sd, N = 2 independent measurements with six technical replicates each (Figs S6-S8)
Method in brief: as §1

[4] = test system: human erythrocytes; assay: Hemolysis assay; format: cell-based; conditions: for Eryhtr. HC50 /µM: 1 h
Method in brief: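 Washed human erythrocytes (5% v/v in PBS) were mixed with peptide plated as a 200–6.25 μM series, in triplicate, for 1 h at 37 °C. Released haemoglobin in the supernatant was read at 540 nm, scaled to 0.1% Triton X-100 (100%) and PBS (0%). HC50 came from a 3-parameter log-logistic fit.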

[5] = test system: Breast cancer cell lines; assay: NCI-60 screening, average of cancer type; format: cell-based, human; conditions: for log GI50: Table 5, Breast, averaged over cell lines, 48 h, sulforhodamine B, 10^-4 to 10^-8 M; for Log GI (M): Table S3, Breast, averaged activity for the cancer type, log GI50
Procedure: (§2) NCI-60 screening procedure
(§3) The NCI-60 screening procedure was performed by the Developmental Therapeutics Program of the National Cancer Institute. The procedure was performed as previously described24 in 96-well microtiter plates. Each peptide was tested in a 5-concentration assay, starting at 10^-4 M and diluting 10-fold to the lowest 10^-8 M concentration. The peptides were incubated for 48 h and the cell concentration was assayed by using the sulforhodamine B assay25 and optical density measurements. The growth inhibition (GI50) value24, measures the growth inhibitory power of the drug agent. The GI50 value is the concentration of the test drug for which the condition in Eq. S1 is met, where T is the optical density of the test well after a 48-h exposure to the peptide, T0 the optical density before applying the peptide drug and C the control optical density of a well where no peptide was applied.

[6] = test system: CNS cancer cell lines; assay: NCI-60 screening, average of cancer type; format: cell-based, human; conditions: for log GI50: Table 5, CNS, averaged over cell lines, 48 h, sulforhodamine B, 10^-4 to 10^-8 M; for Log GI (M): Table S3, CNS, averaged activity for the cancer type, log GI50
Procedure: as §2, §3

[7] = test system: Leukemia cell lines; assay: NCI-60 screening, average of cancer type; format: cell-based, human; conditions: for log GI50: Table 5, Leukemia, averaged over cell lines, 48 h, sulforhodamine B, 10^-4 to 10^-8 M; for Log GI (M): Table S3, Leukemia, averaged activity for the cancer type, log GI50
Procedure: as §2, §3

[8] = test system: Lung cancer cell lines; assay: NCI-60 screening, average of cancer type; format: cell-based, human; conditions: for log GI50: Table 5, Lung, averaged over cell lines, 48 h, sulforhodamine B, 10^-4 to 10^-8 M; for Log GI (M): Table S3, Lung, averaged activity for the cancer type, log GI50
Procedure: as §2, §3

[9] = test system: Renal cancer cell lines; assay: NCI-60 screening, average of cancer type; format: cell-based, human; conditions: for log GI50: Table 5, Renal, averaged over cell lines, 48 h, sulforhodamine B, 10^-4 to 10^-8 M; for Log GI (M): Table S3, Renal, averaged activity for the cancer type, log GI50
Procedure: as §2, §3

[10] = Fig. 1d, compared with the EC50 against cancer cell lines, N = 3

## CC[C@H](C)[C@H](NC(=O)[C@H](CCCNC(=N)N)NC(=O)[C@H](Cc1c[nH]c2ccccc12)NC(=O)[C@@H](NC(=O)[C@H](CCCCN)NC(=O)[C@H](CCCCN)NC(=O)[C@@H](NC(=O)[C@@H](NC(=O)[C@@H](NC(=O)[C@H](CCCCN)NC(=O)[C@H](Cc1ccccc1)NC(=O)[C@H](CCCCN)NC(=O)[C@H](CCCCN)NC(=O)[C@H](Cc1ccccc1)NC(=O)[C@@H](NC(=O)[C@@H](N)CCCCN)[C@@H](C)CC)[C@@H](C)O)[C@@H](C)CC)[C@@H](C)CC)C(C)C)C(=O)N[C@@H](Cc1ccccc1)C(=O)NCC(=O)N[C@@H](CCCNC(=N)N)C(=O)N[C@@H](Cc1ccccc1)C(N)=O [AmphiArc2] (H-KIFKKFKTIIKKVWRIFGRF-NH2)
[1]; 10^4 cells per well, 24 h with peptide, 2-fold dilution series from 100 µM in DMEM, absorbance 540 nm, mean ± std, N = 3, read-out: A549 EC50/µM
  EC50: 9.3 ± 1.5 µM
[2]; 10^4 cells per well, 24 h with peptide, 2-fold dilution series from 100 µM in DMEM, absorbance 540 nm, mean ± std, N = 3
  EC50: 5.7 ± 0.7 µM
[3]; [10]
  EC50 value against the noncancer HDMEC primary cell line (in words): same low-micromolar range
[3]
  EC50: 3.3 ± 0.2 µM
[4]; [10]
  half-effective hemolytic concentration (HC50) against human erythrocytes (in words): same low-micromolar range
[4]; Table S2, 5% v/v erythrocytes in PBS added 1:1, peptide 200 to 6.25 µM, 37°C, absorbance 540 nm, 0.1% Triton-X-100 = 100%, mean ± sd, N = 2 independent, three technical replicates
  Eryhtr. HC50 /µM: 16 ± 2 µM
[5]
  log GI50: −5.6 M
  Log GI (M): -5.65 M
[6]
  log GI50: −5.6 M
  Log GI (M): -5.63 M
[7]
  log GI50: −5.5 M
  Log GI (M): -5.50 M
[8]
  log GI50: −5.6 M
  Log GI (M): -5.65 M
[9]
  log GI50: −5.7 M
  Log GI (M): -5.67 M

## CC[C@H](C)[C@H](NC(=O)[C@H](CCCCN)NC(=O)[C@H](CCCCN)NC(=O)[C@@H](NC(=O)[C@@H](NC(=O)[C@@H](N)Cc1c[nH]cn1)[C@@H](C)CC)[C@@H](C)CC)C(=O)N[C@@H](CCCNC(=N)N)C(=O)N[C@H](C(=O)N[C@@H](Cc1c[nH]c2ccccc12)C(=O)N[C@@H](Cc1ccc(O)cc1)C(=O)N[C@@H](CCCNC(=N)N)C(=O)N[C@@H](CCCCN)C(=O)N[C@@H](C)C(=O)N[C@@H](Cc1c[nH]c2ccccc12)C(=O)N[C@@H](Cc1c[nH]cn1)C(=O)N[C@H](C(=O)N[C@@H](CC(C)C)C(=O)NCC(=O)N[C@@H](CCCCN)C(=O)N[C@H](C(N)=O)C(C)C)C(C)C)[C@@H](C)O [Off2] (H-HIIKKIRTWYRKAWHVLGKV-NH2)
[1]; Table S2, 24 h, mean ± sd, N = 2 independent measurements with six technical replicates each (Figs S6-S8), read-out: A549 EC50 /µM
  EC50: 17 ± 0.6 µM
[2]; Table S2, 24 h, mean ± sd, N = 2 independent measurements with six technical replicates each (Figs S6-S8)
  EC50: 10 ± 2 µM
[3]
  EC50: 32 ± 3 µM
[4]; red cells of human
  Eryhtr. HC50 /µM: > 200 µM
[5]
  log GI50: −5.4 M
  Log GI (M): -5.36 M
[6]
  log GI50: −5.2 M
  Log GI (M): -5.21 M
[7]
  log GI50: −5.2 M
  Log GI (M): -5.17 M
[8]
  log GI50: −5.4 M
  Log GI (M): -5.37 M
[9]
  log GI50: −5.3 M
  Log GI (M): -5.28 M
